Assay results: a melting point compilation (Tetko et al.; mined from patent text by program, amines drawn as free bases though some values may be those of a salt)

Row | SMILES | melting point
1 | C=CCCNCc1nnc2n1-c1ccc(Cl)cc1C(c1ccccc1)=NC2 | 157 to 160 °C
2 | CCOC(=O)c1ncc2[nH]c3cccc(OCc4ccccc4)c3c2c1COC | 130 to 131 °C
3 | CN(CC(=O)N(C)c1ccc(OCC(=O)N[C@@H](CC(N)=O)C(=O)[C@@H](C(N)c2ccccc2)[C@H](O)C(=O)N2CCC[C@H]2C(=O)NC(C)(C)C)cc1)c1ccccc1 (stereo partly drawn) | 107 to 112 °C
4 | COc1nc(NC(=O)NS(=O)(=O)c2ccccc2CCC(F)(F)F)nc(OC)n1 | 177 to 178 °C
5 | CCOP(=O)(C/C=C\CC1(C(=O)NCC(F)(F)F)c2ccccc2-c2ccccc21)OCC | 88 to 91 °C
6 | CCOC(=O)c1cc2cc(C#N)ccc2[nH]1 | 181 to 182 °C
7 | COc1ccc(C[C@H](NC(=O)OCc2ccccc2)C(=O)N2CCN(CC(=O)OC(C)(C)C)C(=O)[C@@H]2CCCNC(=O)OCc2ccccc2)cc1 | 138 to 140 °C
8 | CC(=O)OC(C(=O)c1cccnc1)c1cccnc1 (stereo not drawn) | 136 to 138 °C
9 | O=C(Oc1cc(OC(=O)c2cc(O)c(O)c(O)c2)c2ccccc2c1)c1cc(O)c(O)c(O)c1 | 163 to 164 °C
10 | SC1=NC2(CO1)COC(S)=N2 | 200 to 202 °C
11 | CCCCCN(CCC12CC3CC(CC(C3)C1)C2)C(=O)NCC(Cc1ccncc1)Cc1ccncc1 | 124 to 136 °C
12 | COc1cc(C(=O)N2CCC(CCN3CCC(C(=O)c4nc5ccccc5n4Cc4ccccn4)CC3)(c3ccccc3)C2)cc(OC)c1OC (stereo not drawn) | 84 to 89 °C
13 | CN1C(=O)C(O)N(C2CCCCC2)C1=O (stereo not drawn) | 140 to 141 °C
14 | O=C([C@H]1CCCN1C(=O)Nc1ccc2ccccc2c1)N1CCc2c([nH]c3ccccc23)C1 | 152 to 155 °C
15 | Cc1ccc(C(=O)C2=C(O)C(=O)N(c3ccc(C)nn3)C2c2ccc(OC3CCN(C)CC3)cc2)cc1 (stereo not drawn) | 259 to 260 °C
16 | COc1cc2c(cc1O)CC(C)(C)NC2 | 170 to 173 °C
17 | CC(=O)OCCC1Cc2c(C)c(OCc3ccccc3)c(C)c(C)c2O1 (racemic) | 80 to 82 °C
18 | OC[C@H]1O[C@H]1c1ccsc1 (racemic) | 63 to 65 °C
19 | O=C(O)C1(c2ccc3c(c2)CCCC3)CCC1 | 123 to 126 °C
20 | N#CCC(C#N)NNc1ccccc1 (stereo not drawn) | 97 to 98 °C

Row | SMILES | melting point
21 | CCOC(=O)C(CCC(C)(C)c1cc(O)c(C(C)(C)CCC(C(=O)OCC)C(=O)OCC)cc1O)C(=O)OCC | 157 to 160 °C
22 | Cc1nc(-c2ccc(C#N)cc2)sc1C(=O)N[C@H](C)[C@](O)(Cn1cncn1)c1ccc(C(F)(F)F)cc1 (relative stereo) | 105 to 111 °C
23 | COc1cccc(NC(=O)N=C2CCCN2C)c1 | 123 to 125 °C
24 | CCc1ccccc1N(C=C(C#N)C#N)N=C(C#N)C#N | 172 to 174 °C
25 | NC1N=C(c2ccccc2)c2ccccc2N(CC(F)(F)F)C1=O (stereo not drawn) | 141 to 143 °C
26 | NC(=O)NCc1cc(Cl)cc(-c2csc(N=C(N)N)n2)n1 | > 300 °C
27 | c1ccc(-c2c[nH]c([C@@H](Cc3c[nH]c4ccccc34)Nc3ncccn3)n2)cc1 | 138 to 140 °C
28 | CN1CCC(N(C)S(=O)(=O)c2ccc(Nc3nccc(Nc4ccc(F)cc4)n3)cc2)CC1 | 205 to 210 °C
29 | COC(=O)C12CCc3ccccc3C1=NN(C(=O)Nc1ccc(C(F)(F)F)cc1)C2 (stereo not drawn) | 177 to 180 °C
30 | CC1(C)CC(NC(=O)Nc2ccccc2)CC(C)(C)N1CC#N | 218 to 220 °C
31 | Cc1nc(-c2ccc(N3CCOCC3)cc2)sc1-c1ccnc(Nc2ccc(N3CCOCC3)cc2)n1 | 273 to 274 °C
32 | O=C1NC(=O)C(c2c[nH]c3ccc(Br)cc23)C1c1cc2c3c(ccn3CCC2)c1 (stereo not drawn) | 195 to 200 °C
33 | O=C(O)c1c[nH]c(=O)n(-c2ccccc2S)c1=O | 254 to 255 °C
34 | CC(=O)c1ccc(/C=C(\C)c2ccc3c(c2)C(C)(C)CCC3(C)C)cc1 | 148 to 149 °C
35 | CCOC(=O)NCCCCCCNC(=O)OCC | 80 to 82 °C
36 | Nc1cc(Br)cc(OCc2ccccc2)c1NC(=O)C1CC1 | 207 to 208 °C
37 | CCCCOC(=O)Nc1cccc(C(C)=O)c1 | 59 to 60 °C
38 | CC(=O)Nc1ccc(Br)c2c1CCN(C(C)=O)C2 | 179 to 181 °C
39 | CCN(CC)S(=O)(=O)c1ccccc1N | 45 to 51 °C
40 | CCC(C)NC(=O)n1c(=O)nc(N2CCOCC2)n1C (stereo not drawn) | 147 °C

More lines, now with the values ahead:

Row | melting point | SMILES
41 | 140 °C | CC(C)(c1ccc(O)cc1)c1ccc(O)c(C(=O)Oc2ccccc2)c1
42 | 216 to 218 °C | Cc1ccc(Cc2cnc(NCCCN(c3ccccc3)c3ccccn3)[nH]c2=O)cn1
43 | 256 to 258 °C | O=c1cc(-c2ccc(O)c(F)c2)oc2ccc(CO)cc12
44 | 215 to 216 °C | NC(=C[N+](=O)[O-])NCc1ccc(Cl)cc1
45 | 218 to 223 °C | CC1OCC(C)n2c1nc1c(N)nc3ccccc3c12 (stereo not drawn)
46 | > 300 °C | Cc1nc(-c2nc(C)c(-c3ccnc(Nc4cc(Cl)c(N5CCOCC5)c(Cl)c4)n3)s2)cs1
47 | 76.5 to 77.5 °C | CCOC(=O)CCSc1nnsc1-c1ccc(F)cc1
48 | 199 to 200 °C | Clc1ccc2c(c1)C(c1ccccc1)=NCc1n[nH]nc1-2
49 | 116 to 120 °C | Cc1cc(C)c2cccc(OCc3c(Cl)ccc(S(=O)(=O)N4CCC[C@H]4C(=O)NCCCNC(=O)c4cccc(C=NN)c4)c3Cl)c2n1
50 | 77 to 78 °C | CC(=O)OCc1ccc([N+](=O)[O-])cc1
51 | 231 to 232 °C | O=C(O)c1cc(-n2c(-c3ccc(Br)cc3)cc3c2CCCC3)ccc1O
52 | 147 to 149 °C | CCc1nn2c(-c3ccc(Cl)cc3Cl)cccc2c1[N+](=O)[O-]
53 | 167 to 169 °C | Cc1sc2ncc(C(O)CCCc3ccccc3)n2c1C (stereo not drawn)
54 | 161 °C | O=C1C=CC(=O)c2c1cccc2[N+](=O)[O-]
55 | 111 to 112 °C | Cc1ccccc1C(=O)c1nc(Cl)ccc1[N+](=O)[O-]
56 | 102 to 103 °C | COc1cc(C)c(O)c2ccccc12
57 | 241 to 243 °C | COc1ccc(C#N)cc1-c1cc(-c2cccc(C#N)c2)on1
58 | 112 to 115 °C | Cc1cc([N+](=O)[O-])c2c(c1Cl)CC(CO)O2 (stereo not drawn)
59 | 257 to 258 °C | CC(C)(C)c1ccc(Nc2ncc(-c3ccnc(Cl)n3)c3ccccc23)cc1
60 | 215 to 216 °C | COc1ccc(-c2sc3c(c2C)c(=O)c(C(C)=O)cn3Cc2ccccc2F)cc1

Row | melting point | SMILES
61 | 170 to 171 °C | CCCCCS(=O)(=O)NC(=O)/C=C/c1c(C)cc(C)n1Cc1ccc(Cl)cc1Cl
62 | 75 to 76 °C | COC(=O)c1nc(Br)cc(Br)c1OCc1ccccc1
63 | 207 to 209 °C | CS(=O)(=O)c1ccc(CCN2CC=C(c3c[nH]c(-c4ccc(F)cc4)c3-c3ccncc3)CC2)cc1
64 | 76 to 78 °C | CC(CO)N1CC(COc2cccc(Cl)c2)OC1=O (stereo not drawn)
65 | 131 to 133 °C | O=C(Nc1ccc(C(F)(F)F)cc1Cl)[C@H]1[C@H](c2ccccc2)C12CCCC2 (relative stereo)
66 | 110 °C | CCOC(=O)c1cc(O)c(C(=O)NCc2ccccc2)cc1O
67 | 158 to 160 °C | O=[N+]([O-])c1cccc(Oc2ccc(Oc3cccc([N+](=O)[O-])c3)cc2)c1
68 | 69 to 70 °C | CCOC(=O)CCCOc1ccc(-c2ccc(OCC)cc2)cc1C=O
69 | 223 to 225 °C | Oc1ccnn1-c1c(Cl)cc(C(F)(F)F)cc1Cl
70 | 74 °C | Cc1cc(-c2ccc(C(F)(F)F)cc2)cnc1N
71 | 178 to 179 °C | CCc1cc(C(=O)c2ccccc2Cl)c(-n2c(C)nnc2CNC(=O)Nc2cccc(CC(=O)OC(C)(C)C)c2)s1
72 | 112 °C | CC(C)Cc1cc(C(=O)NCCc2ccncc2)ccc1OCc1ccc(F)cc1
73 | 79 to 81 °C | Cc1ccc2c(n1)CC(c1ccccc1)CC2=O (stereo not drawn)
74 | 112 to 115 °C | COc1ccccc1-c1nn(-c2ccccc2)c(=O)o1
75 | 58 to 60 °C | CC(=O)c1cccc(-c2ccc(OC[C@H](O)CCc3cccnc3)cc2)c1
76 | 176 to 178 °C | Cc1ccc2c(c1)C(=O)C(C#N)C2=O (stereo not drawn)
77 | 112 to 113 °C | CCCC1(C)OC(=O)C(c2ccc(F)cc2)=C1c1ccc(S(C)(=O)=O)cc1 (stereo not drawn)
78 | 243 to 246 °C | CCOC(=O)c1cnc2[nH]c(=O)ccc2c1Nc1ccc(OC)cc1
79 | 132 °C | Fc1ccc(-n2nnc3cccnc32)c(F)c1
80 | 108 °C | c1ccc(-c2n[nH]cc2-c2ccnc(-c3ccc(OCCn4ccnc4)cc3)c2)nc1

Row | melting point | SMILES
81 | 174 to 175 °C | O=C1N(Cc2ccc(Cl)s2)c2ccccc2C1(O)c1cc(OCc2ccccc2)ccc1O (stereo not drawn)
82 | 209 to 210 °C | O=C(c1cccs1)c1cnn2c(-c3cccc(NC(=O)C4CCCC4)c3)ccnc12
83 | > 250 °C | NC(c1ccccc1CNc1ccnc2cc(Cl)ccc12)c1ccnc2cc(Cl)ccc12 (stereo not drawn)
84 | 153 to 154 °C | CN(C[PH](=O)O)c1cc(Oc2ccc(C(F)(F)F)cc2Cl)ccc1[N+](=O)[O-]
85 | 147 to 151 °C | COC(=O)c1ccc(-c2nnc(-c3ccc(C(C)C)cc3)s2)cc1
86 | 181 to 183 °C | O=[N+]([O-])c1ccccc1COc1ccc2ncc3c(c2c1)C(O)CCC3 (stereo not drawn)
87 | 207 °C | CC1=C(C(=O)OC(C)(C)C)C(c2ccccc2Cl)c2c[nH]nc2N1 (stereo not drawn)
88 | 193 to 196 °C | Cc1cc2c(c(C)c1NC=O)C(c1ccc(C(C)C)cc1)CO2 (stereo not drawn)
89 | 152 to 153 °C | CC(C)Oc1c(-c2ccc(S(C)(=O)=O)cc2)cnn(CC(F)(F)F)c1=O
90 | 136 °C | CCCCC(CC)C(=O)Nc1ccc2cnn(Cc3ccc(C(=O)OC)cc3OC)c2c1 (stereo not drawn)
91 | 145 to 146 °C | COc1ccc2c(CN3CCC[C@H]3C(=O)O)cc3cc4c(cc3c2c1)OCO4
92 | 193 to 197 °C | CCOc1cc2c(Nc3ccc(OC)cc3)c(CO)cnc2nc1C
93 | 147 to 149 °C | CCc1c(-c2ccc(O)cc2)c2ccc3c(NC(C)=O)ccc1n32
94 | 263 to 265 °C | O=c1ccc2c(-n3cnc(-c4ccccc4)c3)nccc2[nH]1
95 | 165 °C | CC(=NO)c1ccc(N)c(C(=NO)c2ccccc2F)c1
96 | 106 to 108 °C | CCN(CC)C(=O)c1ccc(C)c(-c2nc(N(C)CCCN(C)C)nc3c2CNC(=O)N3c2c(F)cccc2F)c1
97 | 130 to 131 °C | CCOC(=O)c1cc2nc(C(F)(F)F)ccc2n1Cc1ccncc1
98 | 98 °C | CCOc1ccc2[nH]c(=O)n(-c3ccc(OC)cc3)c2c1
